Source: PMC9096233, “Identification of an Au(I) N-Heterocyclic Carbene Compound as a Bactericidal Agent Against Pseudomonas aeruginosa” (Frontiers in Chemistry, 2022)

Legend:
lung carcinoma A549 cell = test: MTT cytotoxicity assay; assay type: cell-based, Human; conditions: 48 h
Description: The cytotoxicity of gold compounds to mammalian cells was measured using the 3-(4, 5-dimethylthiazol-2-yl)-2, 5-diphenyltetrazolium bromide (MTT) assay. Human hepatocyte L-O2 cell, and lung carcinoma A549 cell were cultured in Corning 96 well microplates (10^4 cells per well) at 37°C for 18 h. Then the cells were incubated with gradient concentrations of gold compounds at 37°C for another 48 h. After the treatment, cell culture media were removed and the plates were wash with PBS for three times. And 90 μL fresh media and 10 μL 5 mg/ml MTT solution were added to each well and further incubated at 37°C for 4 h. Subsequently, the media were removed from the wells and 150 μL DMSO was added into each well to dissolve the formazan crystals. The absorbance at 490 nm of each well was measured with a micro-plate reader. The experiments were carried out in triplicates.

rhamnolipid = test: Rhamnolipid measurement (anthrone); assay type: cell-based, Pseudomonas aeruginosa; conditions: 15 μM
Description: (§1) To quantify the secreted virulence factors, overnight P. aeruginosa PAO1 was diluted in fresh M9 medium and cultured to a final OD600 value of 0.15. Then Au1 or auranofin were added into culture with indicated concentrations. After 24 h incubation at 37°C, the bacterial supernatants were collected by centrifugation at 4,000 g for 10 min at 4°C and filtered using a 0.22 μm syringe filter (Millipore). The secreted virulence factors in the supernatant were quantified by the methods described below.
For rhamnolipid measurement, rhamnolipid was extracted from the supernatant with a mixture of chloroform and methanol (v:v = 2:1). The organic solvent phase was then evaporated to dryness and 100 μL methanol was added to dissolve the extracted rhamnolipid. Then 200 μL of pre-cooled anthrone solution (dissolving 2 g of anthrone in 1 L of concentrated H2SO4) was added into 20 μL extracted rhamnolipid sample and heat at 80°C for 30min. The rhamnolipid concentration was determined by measurement the absorbance at 630 nm.

P. aeruginosa biofilm = test: Biofilm inhibition, crystal violet; assay type: cell-based, Pseudomonas aeruginosa; conditions: 48 h static incubation
Description: P. aeruginosa was cultured in 24-well microtiter plate (Corning, NY, United States) for static biofilm formation. For biofilm inhibition assay, approximately 1 ml of bacterial overnight culture were diluted in fresh M9 medium with a final OD600 value of 0.33 and transferred into each well of microtiter plate in the absence or presence of sub-lethal concentration of Au1 or auranofin (2.5, 10, and 15 μM). After static incubation at 37°C for 48 h, weakly adherent planktonic cells were removed from the microtiter plate by washing with phosphate buffered saline (PBS) for three times gently. The adherent biofilms were dried and stained with 0.1% (w/v) crystal violet for 15 min. Excess dye was removed by rinsing the plate three times with PBS. Crystal violet was solubilized from the stained biofilms by adding 30% acetic acid and the biofilms were quantified by measuring the 595 nm absorbance. Each experiment was performed in triplicates.

P. aeruginosa PAO1 = test: Mouse skin wound infection model; assay type: in vivo
Description: Six-week-old female BALB/c mice were used for animal experiments to evaluate the healing effect of infected wounds in vivo. Briefly, mouse backs were cut to generate a circular wound (diameter 0.6 cm) with a hole punch and the wound was infiltrated using a medical cotton swab with P. aureginosa (overnight culture, OD600 = 0.3). The mice were randomly divided into three groups, including PBS, auranofin, and Au-1 groups (n = 5 in each group). The drugs were dissolved in DMSO and diluted with glycerol to a final concentration of 50 μM. After the bacterial fluid was dry, about 20 μL of the drug was added to the wound. Body weights and wound photography was recorded on days 0, 1, 3, 5, and 8. And on the 8th day, the mice were euthanized by chloral hydrate, the infectious tissues in all groups were collected and cultured into the LB plate for colony counting. The skin tissues were also fixed by paraformaldehyde solution (4%) for H&E, Gram, and Masson’s trichrome staining.
The above results promoted us to further investigate whether the Au1 compound was also efficacious in an in vivo animal infection model. To this end, we used a mouse wound infection model to assess the anti-P. aeruginosa efficacy of Au1 as described previously ([Liao et al., 2017b]). In brief, a circular wound with a diameter of 6 mm was created on the flank of mice, and approximately 5 × 10^8 CFU of P. aeruginosa PAO1 were dipped onto the wound by medical cotton swab to induce infection. Treatment is administered on the 1st day with auranofin or Au1 compound (50 μM, 20 μL) was applied to the wounds. The wound sizes and mice weights were recorded each day. On the 8th day, the infection sites were excised and part of the tissues was fixed in 4% paraformaldehyde and embedded in paraffin. Four-micrometer sections were cut, stained with Gram, H&E, and Masson’s trichrome stain. The remained tissues were homogenized and serially diluted for CFU quantification (Figure 6A).

P. aeruginosa [1] = test: Checkerboard assay with antibiotics; assay type: cell-based, Pseudomonas aeruginosa; conditions: with tobramycin and colistin
Description: Figure S4. Heat plots of checkerboard assays for gold(I) compounds in combination with different antibiotics against P. aeruginosa.

LasA protease = LasA protease detection (azocasein); assay type: cell-based, Pseudomonas aeruginosa; conditions: 15 μM; 24 h
Description: as §1
For LasA protease detection, 5 μL of filtered supernatant was mixed with 1 ml of 0.5% azocasein (Sigma-Aldrich) in reaction buffer (50 mM Tris-HCl, 0.5 mM CaCl2, pH 7.5). The mixture was incubated at 37°C for 15 min. After reaction, 500 μL of 10% trichloroacetic (TCI Shanghai) acid was added and incubated for 30 min at room temperature. After centrifugation at 10,000 g for 20 min, the 440 nm absorbance of the collected supernatant was measured to quantify the secreted LasA protease.

P. aeruginosa [2] = test: Drug resistance development assay (serial passage); assay type: cell-based, Pseudomonas aeruginosa; conditions: serial passage at sub-lethal concentrations over 14 days
Description: Development of resistance to the Au1 compound and the antibiotics (ciprofloxacin and tobramycin) were assessed as described by [Habets and Brockhurst (2012)]. The MIC assay was performed on the first day as described above. […] Thereafter, a new passage MIC measurement assay was prepared using diluted bacterial cells grown at 0.5-fold MIC suspension. This was repeated for 14 passages and the MIC values for Au1, ciprofloxacin and tobramycin were recorded for each passage.

pyoverdine = test: Quantification of secreted pyoverdine; assay type: cell-based, Pseudomonas aeruginosa; conditions: 15 μM; 24 h
Description: as §1

LasB elastase = test: LasB elastase, Elastin-Congo red assay; assay type: cell-based, Pseudomonas aeruginosa; conditions: 15 μM; 24 h
Description: as §1
The LasB elastase was examined by Elastin-Congo red assay ([Morihara et al., 1965]). In brief, 700 μL of bacterial supernatant was incubated with 700 μL of 10 mg/ml Elastin-Congo (Sigma-Aldrich) red elastase substrate in reaction buffer (100 mM Tris-HCl, 1 mM CaCl2, pH 7.5) at 37°C for 3 h with shaking. Then 0.2 ml EDTA was added to a final concentration of 10 mM to stop the cleavage reaction. Insoluble pellets were removed by centrifugation and the absorbance of the supernatant at 495 nm was measured.

## NHC^Me-Au-Cl [Au1]
Lung carcinoma A549 cell
  IC50: 32.8 ± 1.6 µM
rhamnolipid
  synthesis of rhamnolipid: significantly suppress
P. aeruginosa biofilm
  lowest concentration sufficient to inhibit biofilm formation: 2.5 µM
P. aeruginosa PAO1; 50 μM, 20 μL on wound, 8th day
  state of infected wound: almost completely recovered
P. aeruginosa PAO1; 50 μM, 20 μL on wound, 8 days
  toxicity to the mice (mice weights): no significant toxicity
P. aeruginosa PAO1; 50 μM, 20 μL on wound, vs auranofin-treated or control group
  wound healing rate: much faster
P. aeruginosa PAO1; 8th day
  bacteria in wound tissue (Gram staining): no bacteria was observed
P. aeruginosa PAO1; 8th day, CFU, compared to control group
  reduction of live bacteria in the infection sites: 90%
P. aeruginosa [1]
  synergistic effects with antibiotics: synergistic effects
LasA protease
  decrease of LasA protease secretion: 54%
P. aeruginosa [2]
  development of resistance: not observed
pyoverdine
  decrease of pyoverdine siderophore secretion: 50%
LasB elastase
  decrease of elastase secretion: 38%
